This experiment has as its target T1, ACE from pig kidney (Sus scrofa, UniProt F1RRW5).
T1 construct: 1 mU ACE from pig kidney (EC 3.4.15.1 (Sigma)); purchased Sigma; host or cells: pig kidney (tissue-derived enzyme)
T1 sequence (F1RRW5 34-1309): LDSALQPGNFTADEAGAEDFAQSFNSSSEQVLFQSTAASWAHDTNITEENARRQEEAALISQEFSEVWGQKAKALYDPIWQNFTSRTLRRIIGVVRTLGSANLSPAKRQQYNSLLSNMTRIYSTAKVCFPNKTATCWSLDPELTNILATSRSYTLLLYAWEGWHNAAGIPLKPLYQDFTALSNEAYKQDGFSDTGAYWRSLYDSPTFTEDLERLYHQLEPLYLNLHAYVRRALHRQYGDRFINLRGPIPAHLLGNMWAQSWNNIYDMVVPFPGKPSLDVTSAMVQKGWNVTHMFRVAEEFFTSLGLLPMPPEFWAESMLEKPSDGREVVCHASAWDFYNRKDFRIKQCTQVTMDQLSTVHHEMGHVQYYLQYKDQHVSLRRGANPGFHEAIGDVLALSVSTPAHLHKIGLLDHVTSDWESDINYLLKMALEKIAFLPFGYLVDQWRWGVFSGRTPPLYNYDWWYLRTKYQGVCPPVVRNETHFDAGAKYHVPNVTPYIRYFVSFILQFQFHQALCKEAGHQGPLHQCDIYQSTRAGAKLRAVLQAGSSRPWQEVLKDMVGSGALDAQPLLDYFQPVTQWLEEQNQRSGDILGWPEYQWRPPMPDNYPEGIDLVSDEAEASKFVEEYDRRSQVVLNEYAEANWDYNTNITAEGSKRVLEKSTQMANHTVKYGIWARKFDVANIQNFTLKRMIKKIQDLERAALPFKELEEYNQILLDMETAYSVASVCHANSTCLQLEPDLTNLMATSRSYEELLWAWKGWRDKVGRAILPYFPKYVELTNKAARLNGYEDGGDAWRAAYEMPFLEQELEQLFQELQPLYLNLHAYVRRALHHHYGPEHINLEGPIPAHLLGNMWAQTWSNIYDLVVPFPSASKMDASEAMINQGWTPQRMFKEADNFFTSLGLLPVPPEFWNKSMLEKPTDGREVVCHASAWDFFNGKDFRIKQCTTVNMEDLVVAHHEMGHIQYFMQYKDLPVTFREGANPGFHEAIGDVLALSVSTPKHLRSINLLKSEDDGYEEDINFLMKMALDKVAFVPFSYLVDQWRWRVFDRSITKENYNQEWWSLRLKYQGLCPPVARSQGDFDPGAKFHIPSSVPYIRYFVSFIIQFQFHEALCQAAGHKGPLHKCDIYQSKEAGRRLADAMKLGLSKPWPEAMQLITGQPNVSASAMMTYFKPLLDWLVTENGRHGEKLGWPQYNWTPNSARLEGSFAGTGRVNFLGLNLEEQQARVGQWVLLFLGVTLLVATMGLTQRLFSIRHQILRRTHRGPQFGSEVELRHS
Put plainly: biochemical. The experiment is classed as biochemical. From the text:
These peptides were investigated for their inhibitory effect using an in vitro-ACE-inhibitor-assay with an angiotensin-converting-enzyme derived from pig kidney. Hippuryl-histidyl-leucin was used as a substrate. […] A concrete experimental description is given below.
The principle of the ACE-inhibition-assay was established by Chejung, H. S., Cushman, D. W.: “Inhibition of homogenous angiotensin converting enzyme of rabbit lung by synthetic venom peptides of Bothrops jararaca.” in Biochimica et Biophysica Acta 293, 451-563 (1973).
The assay was performed in 96 well HTRF-plates (Packard). The concentrations used for each well were:
1 mU ACE from pig kidney (EC 3.4.15.1 (Sigma)) in 30 μl of assay buffer (25 mM HEPES; 0,3 M NaCl, pH 8,2) and 20 μl inhibitor dissolved in assay buffer (0,35-200 μM). The reaction was started by adding 50 μl of 2 mM hippuryl-histidyl-leucin (Sigma) in assay buffer. The reaction was performed at room temperature (22° C.) for 30 minutes and terminated by adding 50 μl of 2 M NaOH. Afterwards 50 μl of 0,5% ortho-phtalaldehyd (Sigma) in methanol were added, 5 minutes later followed by 50 μl of 2,5 M HCl-solution to stabilize the developed fluorescence product.
The results were used to calculate the % inhibition. The IC50-values were determined graphically from a curve showing the dose-reaction ratio.
In order to minimize errors due to time-dependent differences, all pipetting steps were performed in a precise time schedule.

Where [1] appears, read: inhibitor 0.78125 μM, replicates A-D.
[2] abbreviates: inhibitor 3.125 μM, replicates A-D.
The mark [3] stands for this setting: inhibitor 6.25 μM, replicates A-D.
Setting [4] is: inhibitor 12.5 μM, replicates A-D.
The mark [5] stands for this setting: inhibitor 25 μM, replicates A-D.
Setting [6] is: inhibitor 50 μM, replicates A-D.
The mark [7] stands for this setting: inhibitor 100 μM, replicates A-D.
The mark [8] stands for this setting: inhibitor 200 μM, replicates A-D.

Where “and” joins values, the source holds several entries; their conditions need not be identical. Equal values may be shown once. Read-outs that look alike come from different tables or passages of the source. Square brackets hold non-standard residues; d marks the D form. Ends that are not written are not given here. Peptide text beside a SMILES is read from it. pGlu = O=C1CC[C@@H](C(=O)O)N1

As to `CC[C@H](C)[C@H](NC(=O)[C@H](CCC(N)=O)NC(=O)[C@@H]1CCCN1C(=O)[C@H](CCCNC(=N)N)NC(=O)[C@@H]1CCCN1C(=O)[C@H](Cc1c[nH]c2ccccc12)NC(=O)[C@@H]1CCC(=O)N1)C(=O)N1CCC[C@H]1C(=O)N1CCC[C@H]1C(=O)O` [BPP9a, reference compound], the IC50 came out at 0.097 µM. For the setting “inhibitor 0.0097 μM, replicates A-D”, the “fluorescence reading (ACE Inhibitor Assay)” value is 710140 and 732003 and 790803 and 704452. For the same molecule, the “% inhibition (ACE Inhibitor Assay)” value (inhibitor 0.0097 μM, replicates A-D, 0.0097 µM) is 17.32% and 14.76% and 7.86% and 17.99%. Also, the “fluorescence reading (ACE Inhibitor Assay)” value (inhibitor 0.0195 μM, replicates A-D) was 651703 and 661931 and 697146 and 649942. The “% inhibition (ACE Inhibitor Assay)” value (inhibitor 0.0195 μM, replicates A-D, 0.0195 µM) is 22.97% and 18.85% and 24.38%. In addition, for the setting “inhibitor 0.039 μM, replicates A-D”, the “fluorescence reading (ACE Inhibitor Assay)” value was 555538 and 591749 and 454421 and 628809. For the same molecule, the “% inhibition (ACE Inhibitor Assay)” value (inhibitor 0.039 μM, replicates A-D, 0.039 µM) is 35.44% and 31.2% and 47.3% and 26.86%. In addition, the “fluorescence reading (ACE Inhibitor Assay)” value (inhibitor 0.078 μM, replicates A-D) is 487053 and 445495 and 462323 and 446174. Also, where the note is “inhibitor 0.078 μM, replicates A-D, 0.078 µM”, the “% inhibition (ACE Inhibitor Assay)” value is 48.35% and 46.37% and 48.26%. Besides, the “fluorescence reading (ACE Inhibitor Assay)” value (inhibitor 0.15625 μM, replicates A-D) was 317736 and 311280 and 262186 and 309352. In addition, the “% inhibition (ACE Inhibitor Assay)” value (inhibitor 0.15625 μM, replicates A-D, 0.15625 µM) was 64.08% and 69.83% and 64.3%. Also, the “fluorescence reading (ACE Inhibitor Assay)” value (inhibitor 0.3125 μM, replicates A-D) is 143514 and 147997 and 149103 and 141700. Moreover, the “% inhibition (ACE Inhibitor Assay)” value (inhibitor 0.3125 μM, replicates A-D, 0.3125 µM) was 83.22% and 83.09% and 83.96%. For the same molecule, the “fluorescence reading (ACE Inhibitor Assay)” value (inhibitor 0.625 μM, replicates A-D) is 60333 and 60929 and 57514 and 55616. The “% inhibition (ACE Inhibitor Assay)” value (inhibitor 0.625 μM, replicates A-D, 0.625 µM) was 93.43% and 93.82% and 94.05%. The “fluorescence reading (ACE Inhibitor Assay)” value (inhibitor 1.25 μM, replicates A-D) is 27485 and 26994 and 27156 and 25833. The “% inhibition (ACE Inhibitor Assay)” value (inhibitor 1.25 μM, replicates A-D, 1.25 µM) was 97.4% and 97.38% and 97.54%. The “fluorescence reading (ACE Inhibitor Assay)” value (inhibitor 2.5 μM, replicates A-D) is 13903 and 14148 and 15119 and 13979. Also, the “% inhibition (ACE Inhibitor Assay)” value (inhibitor 2.5 μM, replicates A-D, 2.5 µM) was 98.91% and 98.79% and 98.93%. The “fluorescence reading (ACE Inhibitor Assay)” value (inhibitor 5 μM, replicates A-D) was 9634 and 9626 and 9656 and 10561. The “% inhibition (ACE Inhibitor Assay)” value (inhibitor 5 μM, replicates A-D, 5 µM) came to 99.33%. The inhibition at 0.0195 µM (read-out: % inhibition (ACE Inhibitor Assay), inhibitor 0.0195 μM, replicates A-D) is 24.2%. Moreover, for the setting “read-out: % inhibition (ACE Inhibitor Assay), inhibitor 0.078 μM, replicates A-D”, the inhibition at 0.078 µM turned out to be 43.5%. Also, the inhibition at 0.15625 µM (read-out: % inhibition (ACE Inhibitor Assay), inhibitor 0.15625 μM, replicates A-D) is 63.3%. Further, the inhibition at 0.3125 µM (read-out: % inhibition (ACE Inhibitor Assay), inhibitor 0.3125 μM, replicates A-D) was found to be 83.8%. The inhibition at 0.625 µM (read-out: % inhibition (ACE Inhibitor Assay), inhibitor 0.625 μM, replicates A-D) came to 93.5%. The inhibition at 1.25 µM (read-out: % inhibition (ACE Inhibitor Assay), inhibitor 1.25 μM, replicates A-D) worked out at 97.3%. Also, the inhibition at 2.5 µM (read-out: % inhibition (ACE Inhibitor Assay), inhibitor 2.5 μM, replicates A-D) came out at 98.9%. Moreover, for the setting “read-out: % inhibition (ACE Inhibitor Assay), inhibitor 5 μM, replicates A-D”, the inhibition at 5 µM turned out to be 99.4%.

`CC[C@H](C)[C@H](NC(=O)[C@H](CC(C)C)NC(=O)[C@@H]1CCCN1C(=O)[C@H](CCSC)NC(=O)[C@@H]1CCC(=O)N1)C(=O)N1CCC[C@H]1C(=O)N[C@@H](CCCNC(=N)N)C(=O)N[C@@H](C)C(=O)N[C@@H](CO)C(=O)N[C@@H](CC(=O)O)C(=O)N[C@@H](CCC(=O)O)C(=O)N[C@@H](CC(N)=O)C(=O)N[C@H](C(=O)N1CCC[C@H]1C(=O)N1CCC[C@H]1C(=O)O)C(C)C` [Peptide S682] ([pGlu]MPLIPRASDENVPP-OH) returned an IC50 of 150 µM.

On to AALSPLPEVPP [Peptide S494], for which the IC50 (ACE from pig kidney, determined graphically, read-out: IC50-value (ACE inhibition)) came out at 9 µM. The “fluorescence reading (ACE Inhibitor Assay)” value is, setting by setting: (inhibitor 0.39 μM, replicates A-D) 704319 and 727603 and 762908 and 659968; under setting [1], 643151 and 655606 and 667363 and 633619; (inhibitor 1.5625 μM, replicates A-D) 602329 and 645065 and 664903 and 606137; under setting [2], 563277 and 547546 and 579178 and 556345; under setting [3], 420434 and 435365 and 427540 and 433344; under setting [4], 312590 and 306320 and 319249 and 308116. In addition, the “fluorescence reading (ACE Inhibitor Assay)” value is, setting by setting: under setting [5], 193365 and 203903 and 204201 and 188693; under setting [6], 119135 and 120732 and 124777 and 108988; under setting [7], 59914 and 62551 and 64312 and 57543; under setting [8], 34342 and 34053 and 34364 and 34738. For the same molecule, the “% inhibition (ACE Inhibitor Assay)” value (inhibitor 0.39 μM, replicates A-D, 0.39 µM) is 2.56% and −0.67% and −5.59% and 8.74%; the “% inhibition (ACE Inhibitor Assay)” value (inhibitor 0.78125 μM, replicates A-D, 0.78125 µM) was 9.35% and 7.71% and 12.41%; the “% inhibition (ACE Inhibitor Assay)” value (inhibitor 1.5625 μM, replicates A-D, 1.5625 µM) was 16.77% and 10.82% and 8.05% and 16.23%; the “% inhibition (ACE Inhibitor Assay)” value (inhibitor 3.125 μM, replicates A-D, 3.125 µM) is 24.4% and 20% and 23.17%; the “% inhibition (ACE Inhibitor Assay)” value (inhibitor 6.25 μM, replicates A-D, 6.25 µM) is 40.02% and 41.11% and 40.3%; the “% inhibition (ACE Inhibitor Assay)” value (inhibitor 12.5 μM, replicates A-D, 12.5 µM) is 57.99% and 56.19% and 57.74%. The “% inhibition (ACE Inhibitor Assay)” value (inhibitor 25 μM, replicates A-D, 25 µM) was 72.26% and 72.21% and 74.38%; the “% inhibition (ACE Inhibitor Assay)” value (inhibitor 50 μM, replicates A-D, 50 µM) is 83.84% and 83.28% and 85.48%; the “% inhibition (ACE Inhibitor Assay)” value (inhibitor 100 μM, replicates A-D, 100 µM) is 91.94% and 91.7% and 92.64%; the “% inhibition (ACE Inhibitor Assay)” value (inhibitor 200 μM, replicates A-D, 200 µM) was 95.91% and 95.82%. In addition, the inhibition at 0.78125 µM under setting [1] is 11.1%. This molecule came in with an inhibition at 3.125 µM under setting [2] of 22.2%. Under setting [3], the inhibition at 6.25 µM is 42.1%. In addition, the inhibition at 12.5 µM under setting [4] was 57.1%. The molecule further yielded an inhibition at 25 µM under setting [5] of 73.7%. Moreover, 50 µM produced 84.1% inhibition under setting [6]. Under setting [7], at 100 µM the inhibition was 92.3%. Under setting [8], this molecule came in with an inhibition at 200 µM of 95.9%.

One may read the IC50 as the concentration needed to halve the response being measured. The inhibition is the share of the control response that was lost under treatment.
